Data from paper PMC5439065, “Effect of Naringenin, Quercetin, and Sesamin on Xenobiotica-Metabolizing CYP1A and CYP3A in Mice Offspring after Maternal Exposure to Persistent Organic Pollutants” (BioMed Research International, 2017).

Legend:
[1] = test system: CYP1A; test: In vitro inhibition of EROD (7-ethoxyresorufin O-dealkylase) activity in hepatic microsomes; settings: for Inhibition of EROD activity: all exposure groups, concentrations 5 to 100000 nM; for Ki at 5 min: CD-1, mouse, liver microsomes, pH 7.4, probe 7-ethoxyresorufin (0.005 to 4.0 µM)
Method: (§1) Liver samples were taken immediately after necropsy, frozen in ethanol and dry ice, and stored at −80°C until use. The microsomal fractions were prepared using a calcium aggregation method. Microsomal protein concentration was determined with a commercially available kit (Bio-Rad laboratories Inc., Hercules, CA, USA) according to the manufacturer's instructions.
(§2) In mice, O-dealkylation of 7-ethoxyresorufin is catalyzed by CYP1A1 and CYP1A2 [15], and O-dealkylation of 7-benzyloxyresorufin by CYP3A11 enzyme. The activities of CYP1A and CYP3A were determined as a rate of ethoxy- (EROD) and benzyloxy- (BROD) resorufin O-dealkylation, respectively. Incubation mixtures contained microsomal protein (0.2 mg), phosphate buffer (pH 7.4, 50 mM), and appropriate substrate (1 μM of 7-ethoxyresorufin or 2 μM of 7-benzyloxyresorufin). Reactions were initiated by the addition of 0.5 mM NADPH. The reaction mixture, in a final volume of 500 μL, was incubated in a water bath at 37°C for 5 min (EROD) or 7 min (BROD), and afterwards the reactions were terminated with ice-cold methanol (500 μL), followed by centrifugation at 7,500 ×g. Resorufin concentrations were measured as previously described. EROD and BROD activities were expressed as pmol of resorufin per milligram protein and minute.
(§3) EROD and BROD activities were initially evaluated in the presence of quercetin, naringenin, and sesamin at nine concentrations from 5 to 100000 nM. To examine the inhibition mode, the activities were determined in the presence of 2 or 3 inhibitor concentrations over the substrate concentration ranges 0.005 to 4.0 μM for EROD and 0.05 to 8 μM for BROD, respectively. The stock solutions of quercetin, naringenin, and sesamin were prepared in DMSO and added to incubations to yield final concentrations of 5, 10, 50, 100, 500, 1000, 2000, […], and 100000 nM. The final DMSO content in the incubations was 0.5%. The control incubations contained the same concentration of DMSO.
(§4) Comparison of enzymatic activities in the absence of the inhibitors between studied groups was performed on logarithmically transformed values using a mixed model with fixed effect of treatment (SAS version 9.3, SAS Institute Inc., Cary, NC, USA). The IC50 (concentration causing 50% reduction of control activity) and Ki values for inhibitors were calculated by nonlinear regression analysis using GraphPad prism version 4.0 for Windows (GraphPad, San Diego, CA, USA). Comparisons of IC50 and Ki values between the studied groups were performed on logarithmically transformed values using one-way analysis of variance, followed by the Tukey multiple-comparisons test. Differences were regarded as significant when P < 0.05.

[2] = target: T1, CYP3A (CYP3A11) (Mus musculus, UniProt Q64459); test: in vitro; settings: CD-1, mouse, microsomes; for IC50 at 7 min: pH 7.4, IC50, CYP3A (BROD), 2 μM 7-benzyloxyresorufin
T1 sequence (Q64459 1-504): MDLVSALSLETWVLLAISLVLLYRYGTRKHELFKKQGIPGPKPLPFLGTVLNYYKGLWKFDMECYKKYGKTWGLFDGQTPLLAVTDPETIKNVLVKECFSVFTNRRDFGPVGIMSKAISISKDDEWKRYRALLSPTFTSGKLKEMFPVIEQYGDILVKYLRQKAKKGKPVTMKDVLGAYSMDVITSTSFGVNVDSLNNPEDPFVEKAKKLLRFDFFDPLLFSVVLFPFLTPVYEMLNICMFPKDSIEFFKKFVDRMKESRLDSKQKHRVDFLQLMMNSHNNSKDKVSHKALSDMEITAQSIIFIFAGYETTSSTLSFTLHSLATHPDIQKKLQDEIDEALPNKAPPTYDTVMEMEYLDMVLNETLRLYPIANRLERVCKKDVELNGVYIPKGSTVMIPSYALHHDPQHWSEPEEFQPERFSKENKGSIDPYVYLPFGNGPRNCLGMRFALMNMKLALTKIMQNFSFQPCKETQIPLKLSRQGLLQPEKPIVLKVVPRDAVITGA
Method: as §1, §2, §3, §4

[3] = target: T2, CYP3A (Mus musculus, UniProt Q64459); test: in vitro; settings: 2 or 3 inhibitor concentrations, substrate 0.05 to 8 μM
T2 sequence (Q64459 1-504): T1 sequence (Q64459 1-504)
Method: as §1, §2, §3, §4

[4] = test system: CYP1A (CYP1A1 and CYP1A2); test: In vitro inhibition of EROD (7-ethoxyresorufin O-dealkylase) activity in hepatic microsomes; settings: CD-1, mouse, liver microsomes, pH 7.4, probe 7-ethoxyresorufin (1 µM), IC50, CYP1A (EROD), geometric mean (confidence interval), 1 μM 7-ethoxyresorufin
Method: as §1, §2, §3, §4

[5] = microsomes from high POPs-exposed mice, geometric mean (confidence interval)
[6] = microsomes from low POPs-exposed mice, geometric mean (confidence interval)
[7] = microsomes from unexposed mice, geometric mean (confidence interval)
[8] = pH 7.4, Ki values, BROD activity, range over the unexposed, low- and high-exposed groups
[9] = pH 7.4, Ki, CYP3A (BROD), microsomes from high POPs-exposed mice, geometric mean (confidence interval)
[10] = pH 7.4, Ki, CYP3A (BROD), microsomes from low POPs-exposed mice, geometric mean (confidence interval)
[11] = pH 7.4, Ki, CYP3A (BROD), microsomes from unexposed mice, geometric mean (confidence interval)

O=C1C[C@@H](c2ccc(O)cc2)Oc2cc(O)cc(O)c21 [Naringenin, naringenin]
Inhibition of EROD activity [1]: No inhibition
Inhibition of EROD activity ([1]; listed as naringenin): Neither naringenin nor sesamin inhibited
IC50 at 7 min [2, 5]: 43.1 µM
IC50 at 7 min [2, 6]: 49.1 µM
IC50 at 7 min [2, 7]: 40.3 µM
Ki at 7 min [2, 8]: 39.3 to 45.8 µM
Ki at 7 min [2, 9]: 39.3 µM
Ki at 7 min [2, 10]: 45.8 µM
Ki at 7 min [2, 11]: 42.1 µM
Mode of inhibition of BROD activity [3]: noncompetitively inhibited

O=c1c(O)c(-c2ccc(O)c(O)c2)oc2cc(O)cc(O)c12 [Quercetin, quercetin]
IC50 at 5 min ([4]; microsomes from high POPs-exposed mice): 5.8 µM
IC50 at 5 min ([4]; microsomes from low POPs-exposed mice): 5.1 µM
IC50 at 5 min ([4]; microsomes from unexposed mice): 5.4 µM
Mode of inhibition of EROD activity ([1]; 2 or 3 inhibitor concentrations, substrate 0.005 to 4.0 μM): competitively inhibited
Ki at 5 min ([1]; Ki values, EROD activity, range over the unexposed, low- and high-exposed groups): 1.7 to 2.6 µM
Ki at 5 min ([1]; Ki, CYP1A (EROD), microsomes from high POPs-exposed mice, geometric mean (confidence interval)): 2.6 µM
Ki at 5 min ([1]; Ki, CYP1A (EROD), microsomes from low POPs-exposed mice, geometric mean (confidence interval)): 2.6 µM
Ki at 5 min ([1]; Ki, CYP1A (EROD), microsomes from unexposed mice, geometric mean (confidence interval)): 1.7 µM
Inhibition of EROD activity [1]: strongly inhibited
IC50 at 7 min [2, 5]: 35.7 µM
IC50 at 7 min [2, 6]: 27.1 µM
IC50 at 7 min [2, 7]: 30.2 µM
Ki at 7 min [2, 8]: 64.9 to 75.3 µM
Ki at 7 min [2, 9]: 75.3 µM
Ki at 7 min [2, 10]: 64.9 µM
Ki at 7 min [2, 11]: 67.1 µM
Mode of inhibition of BROD activity [3]: noncompetitively inhibited
